In patent EP0787717A1, “Substituted diaryl dicarboxylic acid diguanidines, process for their preparation, their use as inhibitors of the Na+/H+ exchange as well as medicament or diagnostic agent containing them” (HOECHST AKTIENGESELLSCHAFT, priority 1996, dated 1997):

target: T1, Na ^+/H ^+-Exchangers von Kaninchenerythrocyten (Oryctolagus cuniculus, UniProt P23791); test: Inhibition of the Na+/H+ exchanger of rabbit erythrocytes (amiloride-sensitive sodium influx, flame photometry); assay type: cell-based, Kaninchen; settings: hyperosmolar salt-sucrose medium, pH 7,4, 37°C, read-out: IC50 Inhibition des Na ^+/H ^+ -Exchangers
T1 construct: den Na ^+-Influx in die Erythrocyten via Na ^+/H ^+-Austausch flammenphotometrisch bestimmen zu können; from tissue; host or cells: Erythrocytes in whole blood from the ear arteries of cholesterol-fed New Zealand White rabbits
Source text: Inhibition des Na ^+/H ^+-Exchangers von Kaninchenerythrocyten Weiße Neuseeland-Kaninchen (Ivanovas) erhielten eine Standard-Diät mit […] für sechs Wochen, um den Na ^+ /H ^+-Austausch zu aktivieren und so den Na ^+-Influx in die Erythrocyten via Na ^+/H ^+-Austausch flammenphotometrisch bestimmen zu können. Das Blut wurde den Ohrarterien entnommen und durch 25 IE Kalium-Heparin ungerinnbar gemacht. Ein Teil jeder Probe wurde zur Doppelbestimmung des Hämatokrits durch Zentrifugieren benutzt. Aliquots von jeweils 100 µl dienten zur Messung des Na ^+-Ausgangsgehalts der Erythrocyten.
Um den Amilorid-sensitiven Natrium-Influx zu bestimmen, wurden 100 µl jeder Blutprobe in jeweils 5 ml eines hyperosmolaren Salz-Sucrose-Mediums (mmol/l: 140 NaCl, 3 KCl, 150 Sucrose, 0,1 Ouabain, 20 Tris-hydroxymethylaminomethan) bei pH 7,4 und 37°C inkubiert. Die Erythrocyten wurden danach dreimal mit eiskalter MgCl2-Ouabain-Lösung (mmol/l: 112 MgCl2, 0,1 Ouabain) gewaschen und in 2,0 ml destilliertem Wasser hämolysiert. Der intrazelluläre Natriumgehalt wurde flammenphotometrisch bestimmt.
Der Na ^+-Nettoinflux wurde aus der Differenz zwischen Natrium-Ausgangswerten und dem Natriumgehalt der Erythrocyten nach Inkubation errechnet. Der Amiloridhemmbare Natrium-Influx ergab sich aus der Differenz des Natriumgehalts der Erythrocyten nach Inkubation mit und ohne Amilorid 3 x 10^-4 mol/l. Auf diese Weise wurde auch bei den erfindungsgemäßen Verbindungen verfahren.

T1 sequence (P23791 whole entry): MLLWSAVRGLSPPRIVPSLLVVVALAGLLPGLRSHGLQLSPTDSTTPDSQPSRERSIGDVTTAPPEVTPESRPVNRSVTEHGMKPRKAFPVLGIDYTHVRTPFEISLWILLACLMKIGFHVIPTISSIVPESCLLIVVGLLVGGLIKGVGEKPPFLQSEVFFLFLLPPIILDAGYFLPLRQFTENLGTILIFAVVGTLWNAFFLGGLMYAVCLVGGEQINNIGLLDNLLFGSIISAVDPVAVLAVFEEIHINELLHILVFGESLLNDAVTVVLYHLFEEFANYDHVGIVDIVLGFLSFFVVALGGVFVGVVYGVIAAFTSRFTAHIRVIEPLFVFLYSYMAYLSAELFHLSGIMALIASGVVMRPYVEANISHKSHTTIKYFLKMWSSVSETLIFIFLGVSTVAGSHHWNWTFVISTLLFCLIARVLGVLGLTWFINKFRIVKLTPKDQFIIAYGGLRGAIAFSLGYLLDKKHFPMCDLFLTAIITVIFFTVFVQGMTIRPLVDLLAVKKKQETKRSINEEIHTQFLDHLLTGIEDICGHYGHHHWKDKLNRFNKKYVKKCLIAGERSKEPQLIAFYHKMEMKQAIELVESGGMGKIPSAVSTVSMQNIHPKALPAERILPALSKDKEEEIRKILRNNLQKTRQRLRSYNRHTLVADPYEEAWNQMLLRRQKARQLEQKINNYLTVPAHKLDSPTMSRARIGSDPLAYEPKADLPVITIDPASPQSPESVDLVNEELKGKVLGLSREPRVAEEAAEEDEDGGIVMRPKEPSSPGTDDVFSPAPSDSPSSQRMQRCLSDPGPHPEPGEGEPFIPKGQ

| Compound | IC50 [µM] |
| --- | --- |
| NC(N)=NC(=O)c1ccc(S(=O)(=O)NC(=O)Nc2cccc(C(=O)N=C(N)N)c2)cc1 [Beispiel 5, 4[3-(Guanidinocarbonyl)phenylaminocarbonylaminosulfonyl]-benzoylguanidin] | 10 |
| NC(N)=NC(=O)c1ccc(-c2cccc(C(=O)N=C(N)N)c2)cc1 [Beispiel 1, 3-(4-Guanidinocarbonyl)phenyl-benzoylguanidin] | 1.5 |
| NC(N)=NC(=O)c1ccc(-c2ccc(C(=O)N=C(N)N)cc2)cc1 [Beispiel 4, Biphenyl-4,4'-dicarbonsäure-diguanidid] | 2 |

Other lines, results leading:

| IC50 [µM] | Compound |
| --- | --- |
| 5 | NC(N)=NC(=O)c1ccc(-c2ccccc2C(=O)N=C(N)N)cc1 [Beispiel 2, 2-(4-Guanidinocarbonyl)phenyl-benzoylguanidin] |
| 1.5 | 4-(4-Guanidinocarbonyl)phenylsulfamoyl-benzoylguanidin [Beispiel 3] |
